Source: patent US20140363830A1, “COMPOUNDS THAT MODULATE HSP90 ACTIVITY AND METHODS FOR IDENTIFYING SAME” (SYNTA PHARMACEUTICALS CORP., priority 2006, published 2014)

Legend:
[1] = tested on: c-kit; test: FACS-based c-kit degradation assay in HEL92.1.7 cells; format: cell-based; settings: about 18 h
Method: (§1) Two leukemia cell lines, HEL92.1.7 and Kasumi-1, were used for testing c-kit degradation induced by Hsp90 inhibitors of the invention. […] The cells were collected and centrifuged (SORVALL RT 6000D) at 1200 rpm for 5 min. The supernatants were discarded, and the cells were washed one time with 1×PBS. After centrifugation the cells were stained with FITC conjugated c-kit antibody (MBL International, Cat #K0105-4) in 100 ml 1×PBS at 4° C. for 1 h. The samples were read and analysized with FACSCalibur flow cytometer (Becton Dicknson).

[2] = tested on: RERF-LC-AI^IVP human lung tumor cells; test: RERF-LC-AI^IVP nude mouse xenograft model; format: in vivo
Method: The human squamous non-small cell lung cancer cell line, RERF-LC-AI (RCB0444; S. Kyoizumi, et al., Cancer. Res. 45:3274-3281, 1985), was obtained from the Riken Cell Bank (Tsukuba, Ibaraki, Japan). […] FBS was obtained from American Type Culture Collection (Manassas, Va., USA) and all other reagents were obtained from Invitrogen Corp. (Carlsbad, Calif., USA). Approximately 4-5×10(6) cells that had been cryopreserved in liquid nitrogen were rapidly thawed at 37° C. and transferred to a 175 cm^2 tissue culture flask containing 50 ml of growth media and then incubated at 37° C. in a 5% CO2 incubator.
(§2) The growth media was replaced every 2-3 days until the flask became 90% confluent, typically in 5-7 days. To passage and expand the cell line, a 90% confluent flask was washed with 10 ml of room temperature phosphate buffered saline (PBS) and the cells were disassociated by adding 5 ml 1× trypsin-EDTA (Invitrogen) and incubating at 37° C. until the cells detached from the surface of the flask. To inactivate the trypsin, 5 ml of growth media was added and then the contents of the flask were centrifuged to pellet the cells. The supernatant was aspirated and the cell pellet was resuspended in 10 ml of growth media and the cell number determined using a hemocytometer. Approximately 1−3×10(6) cells per flask were seeded into 175 cm^2 flasks containing 50 ml of growth media and incubated at 37° C. in a 5% CO2 incubator. When the flasks reached 90% confluence, the above passaging process was repeated until sufficient cells had been obtained for implantation into mice.
Seven to eight week old, female Crl:CD-1-nuBR (nude) mice were obtained from Charles River Laboratories (Wilmington, Mass., USA) Animals were housed 4-5/cage in micro-isolators, with a 12 hr/12 hr light/dark cycle, acclimated for at least 1 week prior to use and fed normal laboratory chow ad libitum. Studies were conducted on animals between 8 and 12 weeks of age at implantation. […] Using a 27 gauge needle and 1 cc syringe, 0.1 ml of the cell suspension was injected subcutaneously into the flank of each nude mouse. Tumor volumes (V) were calculated by caliper measurement of the width (W), length (L) and thickness (T) of tumors using the following formula: V=0.5236×(L×W×T).
In vivo passaged RERF-LC-AI tumor cells (RERF-LC-AI^IVP) were isolated to improve the rate of tumor implantation relative to the parental cell line in nude mice. RERF-LC-AI tumors were permitted to develop in vivo until they reached approximately 250 mm^3 in volume, which required approximately 3 weeks following implantation. Mice were euthanized via CO2 asphyxiation and their exteriors sterilized with 70% ethanol in a laminar flow hood. Using sterile technique, tumors were excised and diced in 50 ml PBS using a scalpel blade. A single cell suspension was prepared using a 55 ml Wheaton Safe-Grind tissue grinder (catalog #62400-358; VWR International, West Chester, Pa., USA) by plunging the pestle up and down 4-5 times without twisting. The suspension was strained through a […] nylon cell strainer and then centrifuged to pellet the cells. The resulting pellet was resuspended in 0.1 M NH4Cl to lyse contaminating red blood cells and then immediately centrifuged to pellet the cells. The cell pellet was resuspended in growth media and seeded into 175 cm^2 flasks containing 50 ml of growth media at 1-3 tumors/flask or approximately 10×10(6) cells/flask. […]

[3] = tested on: c-kit; test: FACS-based c-kit degradation assay in Kasumi-1 cells; format: cell-based; settings: about 18 h
Method: as §1

[4] = tested on: c-kit; test: Western blot analysis of c-Kit in Kasumi-1 cells; format: cell-based
Text: The results of the FACS analysis were confirmed with Western blot analysis (see FIG. 5). […] In contrast, 17-AAG had no effect of c-Kit protein levels.

[5] = tested on: human tumor cell line MDA-MB-435S; test: MDA-MB-435S nude mouse xenograft model; format: in vivo; settings: 300 mg/kg body weight IP, 5 days per week for 3 weeks
Method: as §2, with “FBS was obtained from Sigma-Aldrich Corp. (St. Louis, Mo., USA), and all other reagents were obtained from Invitrogen Corp. (Carlsbad, Calif., USA). Approximately 4-5×10(6) cells that had been cryopreserved in liquid nitrogen were rapidly thawed at 37° C. and transferred to a 175 cm^2 tissue culture flask containing 50 ml of growth media and then incubated at 37° C. in a 5% CO2 incubator. The growth” for “The growth”, “ml 1× Trypsin-EDTA (Invitrogen) and” for “ml 1× trypsin-EDTA (Invitrogen) and”, “hemocytometer. Approximately 1-3×10(6) cells per” for “hemocytometer. Approximately 1−3×10(6) cells per”
Six to eight week old, female Crl:CD-1-nuBR (nude) mice were obtained from Charles River Laboratories (Wilmington, Mass., USA) Animals were housed 4-5/cage in micro-isolators, with a 12 hr/12 hr light/dark cycle, acclimated for at least 1 week prior to use and fed normal laboratory chow ad libitum. Studies were conducted on animals between 7 and 12 weeks of age at implantation. […] Tumor volumes (V) were calculated by caliper measurement of the width (W), length (L) and thickness (T) of tumors using the following formula: V=[…]×(L×W×T) Animals were randomized into treatment groups so that the average tumor volumes of each group were similar at the start of dosing. […]

[6] = tested on: Her2; test: Degradation of Her2 in BT-474 cells (Western blot); format: cell-based, Human; settings: for Her2 degradation: overnight
Method: Human high-Her2 breast carcinoma BT474 (HTB-20), SK-BR-3 (HTB-30) and MCF-7 breast carcinoma (HTB-22) from American Type Culture Collection, VA, USA were grown in Dulbecco's modified Eagle's medium with 4 mM L-glutamine and antibiotics (100 IU/ml penicillin and 100 ug/ml streptomycine; GibcoBRL). To obtain exponential cell growth, cells were trypsinized, counted and seeded at a cell density of 0.5×10^6 cells/ml regularly, every 3 days. All experiments were performed on day 1 after cell passage.
After treatment, each cytoplasmic sample was prepared from 1×10^6 cells by incubation of cell lysis buffer (#9803, cell Signaling Technology) on ice for 10 minutes. The resulting supernatant used as the cytosol fractions were dissolved with sample buffer for SDS-PAGE and run on a SDS-PAGE gel, blotted onto a nitrocellulose membrane by using semi-dry transfer. Non-specific binding to nitrocellulose was blocked with 5% skim milk in TBS with 0.5% Tween at room temperature for 1 hour, then probed with anti-Her2/ErB2 mAb (rabbit IgG, #2242, Cell Signaling) and anti-Tubulin (T9026, Sigma) as housekeeping control protein. HRP-conjugated goat antirabbit IgG (H+L) and HRP-conjugated horse antimouse IgG (H+L) were used as secondary Ab (#7074, #7076, Cell Signaling) and LumiGLO reagent, 20× Peroxide (#7003, Cell Signaling) was used for visualization.

[7] = tested on: Hsp90 protein; test: Malachite Green assay of ATPase activity of Hsp90 protein; format: biochemical; settings: 37° C., 4 hours
Method: Hsp90 protein was obtained from Stressgen (Cat#SPP-770). Assay buffer: 100 mM Tris-HCl, Ph7.4, 20 mM KCl, 6 mM MgCl2. […] Malachite green reagent was added to the reaction. […] The plate was read by an ELISA reader with an absorbance at 620 nm.

[8] = 200 mg/kg body weight i.p., 5 days per week, 15 doses

SMILES | c-kit degradation ([1]; 0.05 μM) | c-kit degradation ([1]; 0.5 μM) | c-kit degradation ([3]; 0.05 μM) | c-kit degradation ([3]; 0.5 μM) | Her2 degradation ([6]; 0.5 μM) | Her2 degradation ([6]; 2 μM) | Her2 degradation ([6]; 5 μM) | other results
CCc1cc(-c2nnc(S)n2-c2ccc(OC)c3c2ccn3C(C)C)c(O)cc1O [Compound 188, 3-(2,4-Dihydroxy-5-ethyl-phenyl)-4-(1-isopropyl-7-methoxy-indol-4-yl)-5-mercapto-[1,2,4]triazole] | induced c-kit degradation | induced c-kit degradation | induced c-kit degradation | induced c-kit degradation |  |  |  | effect on body weights [2, 8]: minimal effect on body weights; growth rate of RERF-LC-AI^IVP human lung tumor cells in nude mice [2, 8]: decreased the growth rate; maximum tolerated dose in nude mice ([2]; mouse, in vivo, ip): ~200 mg/kg body weight
CC(C)c1cc(-c2nnc(S)n2-c2ccc3c(ccn3C)c2)c(O)cc1O [Compound 221, 3-(2,4-dihydroxy-5-isopropyl-phenyl)-4-(N-methyl-indol-5-yl)-5-mercapto-[1,2,4]triazole] | induced c-kit degradation | induced c-kit degradation | induced c-kit degradation | induced c-kit degradation |  |  |  | degradation of c-Kit (Western blot) ([4]; 100 nM): induced the degradation of c-Kit; degradation of c-Kit (Western blot) ([4]; 400 nM): induced the degradation of c-Kit
CCc1cc(-c2nnc(S)n2-c2cccc3ccccc23)c(O)cc1O [Compound 49, 3-(2,4-Dihydroxy-5-ethyl-phenyl)-4-(naphthalen-1-yl)-5-mercapto-[1,2,4]triazole] |  |  |  |  | partial degradated | complete degradation | complete degradation | effect on body weights [5]: lack of an effect on body weights; toxicity [5]: not associated with significant toxicity; growth rate of MDA-MB-435S cells in nude mice ([5]; compared with 100 mg/kg 17-AAG): decreased the growth rate of MDA-MB-435S cells in nude mice to a greater extent than did a dose of 100 mg/kg body weight of the Hsp90 inhibitor 17-AAG; Activity in Her2 degradation relative to Compound 108 [6]: even more active than Compound 108
Oc1ccc(-c2nnc(S)n2-c2cccc3ccccc23)c(O)c1 [Compound 108, 3-(2,4-Dihydroxy-phenyl)-4-(naphthalen-1-yl)-5-mercapto-[1,2,4]triazole] |  |  |  |  | partially degradated | partially degradated | almost completely degraded | ATPase activity of Hsp90 ([7]; 4 μM): significant inhibition; ATPase activity of Hsp90 ([7]; 40 μM): even greater inhibition of ATPase activity of Hsp90 than geldanamycin
C=CCNC1=C2C[C@@H](C)C[C@H](OC)[C@H](O)[C@@H](C)/C=C(\C)[C@H](OC(N)=O)[C@@H](OC)/C=C\C=C(/C)C(=O)NC(=CC1=O)C2=O [Compound 17-AAG, 17-allylamino-17-demethoxygeldanamycin, reference compound] |  | could not induce c-kit degradation |  | could not induce c-kit degradation |  |  |  | c-Kit protein levels (Western blot) ([4]; concentration not given): had no effect; growth rate of RERF-LC-AI^IVP human lung tumor cells in nude mice ([2]; 75 mg/kg body weight i.p., 5 days per week, 15 doses): decreased the growth rate; maximum tolerated dose in nude mice ([2]; i.p., 5 times per week): ~75 mg/kg body weight
